Reference: PubChem BioAssay (NCI)
Several values for one entry are separate records, joined by “and”; a condition that tells them apart may be missing. Equal values may be shown once.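 How tested: cells in 96-well plates exposed to compound for 48 hours at five concentrations. GI50 = concentration required for 50% inhibition of growth. TGI denotes the concentration required for complete inhibition of growth.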

Experiments:
Test in all cases: DTP human tumour cell line panel, 48 h
786-0 renal = test system: 786-0 renal
OVCAR-3 ovarian = test system: OVCAR-3 ovarian
CAKI-1 renal = test system: CAKI-1 renal
SR leukemia = test system: SR leukemia
SK-MEL-5 melanoma = test system: SK-MEL-5 melanoma
SNB-19 CNS = test system: SNB-19 CNS
RPMI-8226 leukemia = test system: RPMI-8226 leukemia
NCI-H23 lung = test system: NCI-H23 lung
HOP-92 NSCLC = test system: HOP-92 NSCLC
OVCAR-4 ovarian = test system: OVCAR-4 ovarian
KM12 colon = test system: KM12 colon
SF-295 CNS = test system: SF-295 CNS
SK-MEL-2 melanoma = test system: SK-MEL-2 melanoma
HT29 colon = test system: HT29 colon
NCI/ADR-RES ovarian = test system: NCI/ADR-RES ovarian

Row | SMILES | TGI (786-0 renal) | TGI (OVCAR-3 ovarian) | TGI (CAKI-1 renal) | TGI (SR leukemia) | TGI (SK-MEL-5 melanoma) | TGI (SNB-19 CNS) | TGI (RPMI-8226 leukemia) | TGI (NCI-H23 lung) | TGI (HOP-92 NSCLC) | TGI (OVCAR-4 ovarian) | TGI (KM12 colon) | TGI (SF-295 CNS) | TGI (SK-MEL-2 melanoma) | TGI (HT29 colon) | GI50 (SR leukemia) [µM] | TGI (NCI/ADR-RES ovarian) [µM]
1 | COc1ccc(/C=C(\Cl)c2ccc(OC)cc2)cc1 | > 100 µM | > 100 µM | > 100 µM | > 100 µM | > 100 µM | > 100 µM | > 100 µM | > 100 µM | > 100 µM | > 100 µM | > 100 µM |  |  |  |  | 
2 | O=C1c2ccccc2C(=O)c2c(O)c(NCCNCCO)cc(O)c21 | 14.1 µM | 15.1 µM | 14.2 µM | 9.04 µM | 13.1 µM | 11.8 µM | 21.4 µM | 16.7 µM | 24.6 µM | 15.7 µM | 15.7 µM | 22.2 µM | 15.8 µM | 11.5 µM |  | 
3 | O=C1Nc2ccc(Br)cc2/C1=C/C(=O)c1ccccc1 | 3.28 µM | 18.2 µM | 20 µM | > 24.9 µM | 41.7 µM | 37.7 µM | > 23.6 µM | 23.8 µM | 12.5 µM | 30.5 µM | 23 µM | 32.5 µM | 32.3 µM | 3.39 µM |  | 
4 | C(=N/NC1=NCCN1)/c1c2ccccc2c(/C=N\NC2=NCCN2)c2ccccc12 | 1.86 µM and 1.87 µM | 0.561 µM and 0.449 µM and 1.75 µM | 2.78 µM and 5.02 µM and 6.65 µM | 0.759 µM and 4.29 µM | 0.214 µM and 0.896 µM and 0.761 µM | 0.458 µM and 0.922 µM and 2.15 µM | 0.798 µM and 2.11 µM and 1.26 µM | 0.647 µM and 1.4 µM and 1.03 µM | 0.547 µM and 0.967 µM and 0.34 µM | 0.4 µM and 0.584 µM and 1.1 µM | 0.816 µM and 0.96 µM and 2 µM | 1.98 µM and 2.11 µM and 2.71 µM | 0.271 µM and 0.747 µM and 0.422 µM | 1.36 µM and 1.41 µM and 2.04 µM | 0.116 | 
5 | Cn1nc(C(=O)N2CC(CCl)c3c2cc([N+](=O)[O-])c2ccccc32)cc1NC(=O)Nc1cc(C(=O)N2CC(CCl)c3c2cc([N+](=O)[O-])c2ccccc32)nn1C (stereo not given) | > 100 µM | > 100 µM | > 100 µM |  | > 100 µM | > 100 µM | > 100 µM | > 100 µM | > 100 µM | > 100 µM | > 100 µM | > 100 µM | > 100 µM |  |  | > 100
6 | CCCCCCC(=O)OC[n+]1cccc(-c2c(COC(=O)NC(C)C)c(COC(=O)NC(C)C)c3n2CCC3)c1 | > 69.8 µM | > 100 µM | 47.8 µM |  | > 88.9 µM | > 100 µM | > 100 µM | > 74.1 µM | 66.4 µM | > 69.1 µM | > 100 µM | > 100 µM | 60.4 µM | > 100 µM |  | > 100
7 | c1cc(C[S+]2CCCC2)oc1C[S+]1CCCC1 | > 100 µM | > 100 µM | > 100 µM |  | > 100 µM | > 100 µM |  | > 100 µM |  | > 100 µM |  | > 100 µM |  | > 100 µM |  | > 100
8 | Cc1ccccc1NC(=O)CSc1nnc(Cc2ccccc2)o1 | > 100 µM | > 100 µM |  |  | > 100 µM |  | > 100 µM | > 100 µM |  | > 100 µM | > 100 µM | > 100 µM | > 100 µM | > 100 µM |  | 
9 | Cc1ccc(-n2cc(-c3ccc(Cl)cc3)c(C#N)c2N)cc1 | 29.1 µM | 29.1 µM | 45.3 µM | > 100 µM | 29.7 µM | 38.1 µM |  | 31.5 µM | 31.5 µM | 28.4 µM |  | 33.8 µM | 29.4 µM | 27 µM |  | 39.1
10 | Cc1ccc(F)c2c(=O)cc(-c3ccccc3)[nH]c12 | > 100 µM |  | > 100 µM | > 100 µM | > 100 µM |  | > 100 µM | > 100 µM | > 100 µM | > 100 µM | > 100 µM | > 100 µM | > 100 µM | > 100 µM |  | 
11 | CC1=C(C(=O)NC(C)(C)C)CC(C(=O)NC(C)(C)C)C(C)N1 (stereo not given) | > 100 µM | > 100 µM | > 100 µM |  | > 100 µM | > 100 µM | > 100 µM | > 100 µM | > 100 µM | > 100 µM | > 100 µM | > 100 µM | > 100 µM | > 100 µM |  | > 100
12 | CN(C)Cc1[nH]c2ccccc2c1C(=O)c1ccccc1 | > 100 µM | > 100 µM | > 100 µM | > 100 µM | > 100 µM | > 100 µM | > 100 µM | > 100 µM | > 100 µM | > 100 µM | > 100 µM | > 100 µM | > 100 µM | > 100 µM |  | 
13 | CSc1nc(-c2ccc(Cl)cc2)c(C#N)c(=O)[nH]1 | > 100 µM | > 100 µM | > 100 µM |  | > 100 µM | > 100 µM | > 100 µM | > 100 µM | 97.7 µM | > 100 µM | > 100 µM | > 100 µM | > 100 µM | > 100 µM |  | > 100
14 | c1ccc(CSC(SCc2ccccc2)c2ccc3c(c2)OCO3)cc1 | > 10 µM | > 10 µM | > 10 µM |  | > 10 µM | > 10 µM | > 10 µM | > 10 µM | > 10 µM | > 10 µM | > 10 µM | > 10 µM | > 10 µM | > 10 µM |  | > 10
15 | CC(=O)C1=NN(c2ccccc2)C2(S1)SC(c1ccccc1)(c1ccccc1)c1ccccc12 (stereo not given) | > 100 µM | > 100 µM |  | > 100 µM |  | > 100 µM | > 100 µM | > 100 µM | 46.1 µM | 79.6 µM | > 100 µM | > 100 µM | 78.7 µM | > 100 µM |  | 
16 | CCCOP(=S)(N1CC1)N1CC1 | > 100 µM | > 100 µM | > 100 µM | > 100 µM | > 100 µM | > 100 µM | > 100 µM | > 100 µM | > 100 µM | > 100 µM | > 100 µM | > 100 µM | > 100 µM | > 100 µM |  | 
17 | CCOC(=O)c1c(NC(=O)c2ccc(Br)cc2)sc2c1CCCC2 | > 100 µM | > 100 µM | > 100 µM | > 100 µM | > 100 µM | > 100 µM | > 100 µM | > 100 µM |  |  | > 100 µM | > 100 µM | > 100 µM | > 100 µM |  | 
